Among the data in patent US20100204222A1, “PYRIDOPYRIMIDINE DERIVATIVES AS P13 KINASE INHIBITORS” (GlaxoSmithKline, LLC, priority 2007, published 2010) are IC50 values, retold here.

Each structure is given as a SMILES string.

The test deals with T1, PI3Kα (Homo sapiens, UniProt P42336).
T1 construct: His; made in house
T1 sequence (P42336 whole entry): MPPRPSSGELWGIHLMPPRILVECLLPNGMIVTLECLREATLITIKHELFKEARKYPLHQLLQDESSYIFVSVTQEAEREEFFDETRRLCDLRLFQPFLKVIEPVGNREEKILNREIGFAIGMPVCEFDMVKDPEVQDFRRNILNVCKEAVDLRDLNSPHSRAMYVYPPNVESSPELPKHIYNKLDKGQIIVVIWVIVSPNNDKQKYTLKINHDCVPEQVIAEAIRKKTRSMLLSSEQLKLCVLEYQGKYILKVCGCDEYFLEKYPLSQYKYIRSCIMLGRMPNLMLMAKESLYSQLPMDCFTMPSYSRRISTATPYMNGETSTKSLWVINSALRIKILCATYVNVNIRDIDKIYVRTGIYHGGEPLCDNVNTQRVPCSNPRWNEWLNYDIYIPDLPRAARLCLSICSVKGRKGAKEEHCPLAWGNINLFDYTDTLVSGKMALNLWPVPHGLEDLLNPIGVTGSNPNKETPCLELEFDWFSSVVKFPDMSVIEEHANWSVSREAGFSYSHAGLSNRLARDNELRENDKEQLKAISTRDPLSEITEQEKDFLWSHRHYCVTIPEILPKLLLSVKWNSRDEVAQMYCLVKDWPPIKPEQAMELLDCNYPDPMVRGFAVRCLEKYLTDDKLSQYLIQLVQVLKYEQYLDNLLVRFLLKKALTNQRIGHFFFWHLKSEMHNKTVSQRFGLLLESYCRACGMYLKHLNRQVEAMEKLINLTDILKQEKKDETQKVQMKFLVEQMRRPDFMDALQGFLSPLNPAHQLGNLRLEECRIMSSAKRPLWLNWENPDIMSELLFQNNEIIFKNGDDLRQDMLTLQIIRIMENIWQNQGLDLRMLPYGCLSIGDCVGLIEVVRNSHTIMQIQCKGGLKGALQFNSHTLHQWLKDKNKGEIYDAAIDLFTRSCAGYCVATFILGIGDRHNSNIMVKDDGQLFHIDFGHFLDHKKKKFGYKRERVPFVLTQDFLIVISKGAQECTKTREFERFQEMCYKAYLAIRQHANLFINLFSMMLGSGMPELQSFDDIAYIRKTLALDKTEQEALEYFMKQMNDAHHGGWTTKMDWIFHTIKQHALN
T1 sequence (P27986 whole entry partner): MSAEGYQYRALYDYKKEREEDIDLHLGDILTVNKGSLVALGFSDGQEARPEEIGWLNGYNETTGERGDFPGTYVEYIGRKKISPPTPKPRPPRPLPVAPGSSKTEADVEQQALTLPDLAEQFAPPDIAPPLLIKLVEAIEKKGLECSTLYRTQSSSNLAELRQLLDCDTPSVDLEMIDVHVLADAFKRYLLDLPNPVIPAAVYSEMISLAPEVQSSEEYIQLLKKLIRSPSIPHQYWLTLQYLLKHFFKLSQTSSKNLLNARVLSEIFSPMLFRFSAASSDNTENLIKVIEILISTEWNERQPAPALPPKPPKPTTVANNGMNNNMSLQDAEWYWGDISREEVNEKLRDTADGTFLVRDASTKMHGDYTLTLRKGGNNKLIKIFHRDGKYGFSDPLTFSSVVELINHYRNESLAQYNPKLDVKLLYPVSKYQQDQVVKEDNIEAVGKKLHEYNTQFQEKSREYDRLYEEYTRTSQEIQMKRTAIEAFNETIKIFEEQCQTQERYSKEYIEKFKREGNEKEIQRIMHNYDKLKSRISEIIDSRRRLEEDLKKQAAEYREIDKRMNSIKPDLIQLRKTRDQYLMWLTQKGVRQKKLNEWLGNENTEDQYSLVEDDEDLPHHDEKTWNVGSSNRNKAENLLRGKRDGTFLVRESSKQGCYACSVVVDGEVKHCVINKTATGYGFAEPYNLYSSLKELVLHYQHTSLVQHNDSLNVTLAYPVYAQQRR
The test can be described thus: PI3K alpha TR-FRET assay / PI3K alpha Leadseeker SPA assay. To be noted: in at least one experimental run; read-out: IC50 value against PI3Kα. It counts as biochemical. On the procedure: Compounds of the present invention were tested according to the following assays and found as inhibitors of PI3 kinases, particularly PI3Kα. The exemplified compounds were tested and found active against PI3Kα. The IC50's ranged from about 1 nM to 10 μM.
The PI3-Kinase assay has been developed and optimized from a kit produced by Upstate (Millipore). Briefly, this kit contains a biotinylated PIP3 which forms a HTRF (homogeneous time-resolved fluorescence energy transfer) complex when mixed with a Europium labeled anti-GST monoclonal antibody, a GST tagged pleckstrin homology (PH) domain, and Streptavidin-Allophycocyanin (APC). The unlabeled PIP3 produced by PI 3-Kinase activity displaces biotin-PIP3 from the complex resulting in a loss of energy transfer and thus a decrease in signal. Millipore, PI 3-Kinase (human) HTRF™ Assay, technical document associated with catalog# 33-017
Compounds are serially diluted (3-fold in 100% DMSO) across a polypropylene 120 μL mother plate from column 1 to column 12 and column 13 to column 24, leaving columns 6 and 18 containing only DMSO to yield 11 concentrations for each test compound. Once titrations are made, 0.1 μL is transferred to the assay plates (Greiner 784075). This assay plate contains three controls: column 6 with DMSO, and column 18 with alternating 20 μM wortmannin and 40 μM PIP3. […] The PIP3 control is dispensed into the plate manually via a matrix pipettor, 1 μL of 200 μM PIP3 in 1× Reaction buffer to wells 18 B, D, F, H, J, L, N, P.
The PI3-Kinase assay has been developed and optimized from a kit produced by Upstate (Millipore). The assay kit (cat: 33-017) contains seven reagents: 1) 4× Reaction Buffer, 2) PIP2 (1 mM), 3) Stop A, 4) Stop B, 5) Detection Mix A, 6) Detection Mix B, 7) Detection Mix C. In addition the following items were obtained or purchased, PI3Kinase (prepared in-house), 4×PI3K Detection Buffer (Millipore), dithiothreitol (Sigma, D-5545), Adenosine-5′-triphosphate (ATP, Sigma, A-6419), PIP3 (1,2-dioctanoyl-sn-glycero-3[phosphoinositil-3,4,5-triphosphate]tetraammonium salt (Avanti polar lipids, 850186P), DMSO (Sigma, 472301), Wortmannin (Sigma, W-1628).
Prepare 1×PI3Kinase Reaction Buffer by diluting stock 1:4 with de-ionized water, freshly prepared DTT is added at a final concentration of 5 mM on the day of use. Enzyme addition and compound preincubation is initiated by the addition of 2.5 μL of 2× enzyme solution, PI3K alpha in 1× reaction buffer, to all wells using a Multidrop Combi. Plates are incubated at room temperature for 15 minutes. Substrate addition and reaction initiation is completed by the addition of 2.5 μL of 2× substrate solution, PIP2 and ATP in 1× reaction buffer, to all wells using a Multidrop Combi. […] Incubate one hour, evaluate the HTRF signal on the Envision plate reader. […]
A general note: TR-FRET usually uses a lanthanide donor and a delayed reading to cut background.
For `CN(C)c1ncnc2ccc(-c3cncc(NS(=O)(=O)c4ccccc4)c3)nc12` [Example 1, N-{5-[4-(dimethylamino)pyrido[3,2-d]pyrimidin-6-yl]-3-pyridinyl}benzenesulfonamide], the IC50 worked out at 2 nM.

As to `O=S(=O)(Nc1cncc(-c2ccc3ncnc(N4CCOCC4)c3n2)c1)c1ccccc1` [Example 2, N-{5-[4-(4-morpholinyl)pyrido[3,2-d]pyrimidin-6-yl]-3-pyridinyl}benzenesulfonamide], the IC50 came to 0.7 nM. On to `COc1ncc(-c2ccc3ncnc(N4CCOCC4)c3n2)cc1NS(=O)(=O)C1CC1` [Example 5, N-{2-(methyloxy)-5-[4-(4-morpholinyl)pyrido[3,2-d]pyrimidin-6-yl]-3-pyridinyl}cyclopropanesulfonamide], for which the IC50 is 0.5 nM. To `O=S(=O)(Nc1cc(-c2ccc3ncnc(N4CCOCC4)c3n2)cnc1Cl)c1ccc(F)cc1F` [Example 7, N-{2-chloro-5-[4-(4-morpholinyl)pyrido[3,2-d]pyrimidin-6-yl]-3-pyridinyl}-2,4-difluorobenzenesulfonamide] belongs 0.02 nM.

What is called IC50 is the concentration at which inhibition is half-maximal.
